Data from US20060069132A1, “Azolecarboxamide herbicides” (priority 2004, published 2006).

Assays:
Assay in all cases: Test E pre-/postemergence herbicide test
[1] = tested on: broadleaf signalgrass; format: in vivo, Brachiaria platyphylla
Procedure, shortened: (§1)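 Test chemicals in a non-phytotoxic solvent mixture with surfactant applied preemergence to planted seeds and postemergence to plants 2 to 18 cm tall (1- to 4-leaf stage). After 12 to 14 days in the greenhouse, injury rated visually against untreated controls on a 0–100 scale (0 no effect, 100 complete control).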

[2] = tested on: purple nutsedge; format: in vivo, Cyperus rotundus
Procedure, shortened: as §1

[3] = tested on: guineagrass; format: in vivo, Panicum maximum
Procedure, shortened: as §1

[4] = tested on: Surinam grass; format: in vivo, Urochloa decumbens
Procedure, shortened: as §1

[5] = tested on: common sowthistle; format: in vivo, Sonchus oleraceous
Procedure, shortened: as §1

[6] = tested on: common mallow; format: in vivo, Malva sylvestris
Procedure, shortened: as §1

[7] = tested on: pitted morningglory; format: in vivo, Ipomoea lacunosa
Procedure, shortened: as §1

[8] = tested on: bermudagrass; format: in vivo, Cynodon dactylon
Procedure, shortened: as §1

[9] = tested on: Italian ryegrass; format: in vivo, Lolium multiflorum
Procedure, shortened: as §1

[10] = tested on: mustard; format: in vivo, Brassica nigra
Procedure, shortened: as §1

[11] = Postemergence, 500 g ai/ha, scale 0 to 100
[12] = Postemergence, 250 g ai/ha, scale 0 to 100
[13] = Preemergence, 125 g ai/ha, scale 0 to 100
[14] = Preemergence, 250 g ai/ha, scale 0 (no effect) to 100 (complete control)
[15] = Preemergence, 375 g ai/ha, scale 0 (no effect) to 100 (complete control)
[16] = Preemergence, 500 g ai/ha, scale 0 (no effect) to 100 (complete control)
[17] = postemergence, 125 g ai/ha, scale 0 to 100
[18] = postemergence, 62 g ai/ha, scale 0 to 100
[19] = Preemergence, 62 g ai/ha, scale 0 to 100

Question: Which results are given for `CCn1nc(C(C)(C)C)cc1C(=O)Nc1cc(C(=S)N(C)C)ccc1F` [Compound 294]?
Answer: Plant response rating, Signalgrass [1, 11]: 70; Plant response rating, Signalgrass [1, 12]: 50; Plant response rating, Signalgrass [1, 13]: 50; Plant response rating, Signalgrass [1, 14]: 70; Plant response rating, Signalgrass [1, 15]: 80; Plant response rating, Signalgrass [1, 16]: 80; Plant response rating, Signalgrass [1, 17]: 30; Plant response rating, Signalgrass [1, 18]: 30; Plant response rating, Nutsedge, Purple [2, 11]: 90; Plant response rating, Nutsedge, Purple [2, 12]: 80; Plant response rating, Nutsedge, Purple [2, 13]: 80; Plant response rating, Nutsedge, Purple [2, 14]: 80; Plant response rating, Nutsedge, Purple [2, 15]: 80; Plant response rating, Nutsedge, Purple [2, 16]: 90; Plant response rating, Nutsedge, Purple [2, 17]: 70; Plant response rating, Nutsedge, Purple [2, 18]: 50; Plant response rating, Guineagrass [3, 11]: 85; Plant response rating, Guineagrass [3, 12]: 80; Plant response rating, Guineagrass [3, 13]: 90; Plant response rating, Guineagrass [3, 14]: 100; Plant response rating, Guineagrass [3, 15]: 100; Plant response rating, Guineagrass [3, 16]: 100; Plant response rating, Guineagrass [3, 17]: 70; Plant response rating, Guineagrass [3, 18]: 50; Plant response rating, Surinam Grass [4, 11]: 85; Plant response rating, Surinam Grass [4, 12]: 80; Plant response rating, Surinam Grass [4, 13]: 95; Plant response rating, Surinam Grass [4, 15]: 100; Plant response rating, Surinam Grass [4, 16]: 100; Plant response rating, Surinam Grass [4, 17]: 70; Plant response rating, Surinam Grass [4, 18]: 30; Plant response rating, Sowthistle [5, 11]: 80; Plant response rating, Sowthistle [5, 13]: 80; Plant response rating, Sowthistle [5, 14]: 95; Plant response rating, Sowthistle [5, 15]: 100; Plant response rating, Sowthistle [5, 16]: 100; Plant response rating, Sowthistle [5, 17]: 60; Plant response rating, Sowthistle [5, 18]: 60; Plant response rating, Mallow [6, 11]: 100; Plant response rating, Mallow [6, 12]: 50; Plant response rating, Mallow [6, 13]: 40; Plant response rating, Mallow [6, 14]: 40; Plant response rating, Mallow [6, 16]: 80; Plant response rating, Mallow [6, 17]: 40; Plant response rating, Mallow [6, 18]: 20; Plant response rating, Morningglory [7, 11]: 20; Plant response rating, Morningglory [7, 12]: 20; Plant response rating, Morningglory [7, 13]: 10; Plant response rating, Morningglory [7, 14]: 10; Plant response rating, Morningglory [7, 15]: 40; Plant response rating, Morningglory [7, 16]: 70; Plant response rating, Morningglory [7, 17]: 10; Plant response rating, Morningglory [7, 18]: 0; Plant response rating, Bermudagrass [8, 11]: 75; Plant response rating, Bermudagrass [8, 12]: 75; Plant response rating, Bermudagrass [8, 13]: 90; Plant response rating, Bermudagrass [8, 14]: 95; Plant response rating, Bermudagrass [8, 15]: 95; Plant response rating, Bermudagrass [8, 16]: 95; Plant response rating, Bermudagrass [8, 17]: 50; Plant response rating, Bermudagrass [8, 18]: 20; Plant response rating, Ryegrass, Italian [9, 11]: 95; Plant response rating, Ryegrass, Italian [9, 12]: 95; Plant response rating, Ryegrass, Italian [9, 13]: 80; Plant response rating, Ryegrass, Italian [9, 14]: 100; Plant response rating, Ryegrass, Italian [9, 15]: 100; Plant response rating, Ryegrass, Italian [9, 16]: 100; Plant response rating, Ryegrass, Italian [9, 17]: 80; Plant response rating, Ryegrass, Italian [9, 18]: 70; Plant response rating, Black Mustard [10, 11]: 95; Plant response rating, Black Mustard [10, 12]: 90; Plant response rating, Black Mustard [10, 13]: 100; Plant response rating, Black Mustard [10, 14]: 100; Plant response rating, Black Mustard [10, 15]: 100; Plant response rating, Black Mustard [10, 16]: 100; Plant response rating, Black Mustard [10, 17]: 90; Plant response rating, Black Mustard [10, 18]: 70

Question: For `CCn1nc(C2(C)CC2)cc1C(=O)Nc1cc(C(=O)N(C)C)ccc1F` [Compound 299], which “Plant response rating, Signalgrass” value [1, 11] is on record?
Answer: 80

Question: What about the “Plant response rating, Signalgrass” value [1, 12] of the same compound?
Answer: 70

Question: And the “Plant response rating, Signalgrass” value [1, 19]?
Answer: 60

Question: What about the “Plant response rating, Signalgrass” value [1, 13] of the same compound?
Answer: 80

Question: What about the “Plant response rating, Signalgrass” value [1, 14] of the same compound?
Answer: 100

Question: What about the “Plant response rating, Signalgrass” value [1, 16] of the same compound?
Answer: 100

Question: What about the “Plant response rating, Signalgrass” value [1, 17] of the same compound?
Answer: 60

Question: And the “Plant response rating, Signalgrass” value [1, 18]?
Answer: 20

Question: What about the “Plant response rating, Nutsedge, Purple” value [2, 11] of the same compound?
Answer: 85

Question: What about the “Plant response rating, Nutsedge, Purple” value [2, 12] of the same compound?
Answer: 80

Question: What about the “Plant response rating, Nutsedge, Purple” value [2, 19] of the same compound?
Answer: 50

Question: And the “Plant response rating, Nutsedge, Purple” value [2, 14]?
Answer: 80

Question: What about the “Plant response rating, Nutsedge, Purple” value [2, 17] of the same compound?
Answer: 75

Question: And the “Plant response rating, Nutsedge, Purple” value [2, 18]?
Answer: 40

Question: What about the “Plant response rating, Guineagrass” value [3, 11] of the same compound?
Answer: 85

Question: What about the “Plant response rating, Guineagrass” value [3, 12] of the same compound?
Answer: 75

Question: And the “Plant response rating, Guineagrass” value [3, 19]?
Answer: 70

Question: And the “Plant response rating, Guineagrass” value [3, 13]?
Answer: 85

Question: And the “Plant response rating, Guineagrass” value [3, 14]?
Answer: 100

Question: What about the “Plant response rating, Guineagrass” value [3, 16] of the same compound?
Answer: 100

Question: What about the “Plant response rating, Guineagrass” value [3, 17] of the same compound?
Answer: 70

Question: And the “Plant response rating, Guineagrass” value [3, 18]?
Answer: 60

Question: What about the “Plant response rating, Surinam Grass” value [4, 11] of the same compound?
Answer: 90

Question: And the “Plant response rating, Surinam Grass” value [4, 12]?
Answer: 75

Question: And the “Plant response rating, Surinam Grass” value [4, 13]?
Answer: 95

Question: And the “Plant response rating, Surinam Grass” value [4, 16]?
Answer: 100

Question: What about the “Plant response rating, Surinam Grass” value [4, 17] of the same compound?
Answer: 75

Question: And the “Plant response rating, Surinam Grass” value [4, 18]?
Answer: 70

Question: What about the “Plant response rating, Sowthistle” value [5, 12] of the same compound?
Answer: 95

Question: What about the “Plant response rating, Sowthistle” value [5, 19] of the same compound?
Answer: 100

Question: What about the “Plant response rating, Sowthistle” value [5, 13] of the same compound?
Answer: 100

Question: What about the “Plant response rating, Sowthistle” value [5, 14] of the same compound?
Answer: 100

Question: What about the “Plant response rating, Sowthistle” value [5, 16] of the same compound?
Answer: 95

Question: And the “Plant response rating, Sowthistle” value [5, 17]?
Answer: 85

Question: And the “Plant response rating, Sowthistle” value [5, 18]?
Answer: 30

Question: What about the “Plant response rating, Mallow” value [6, 11] of the same compound?
Answer: 100

Question: And the “Plant response rating, Mallow” value [6, 12]?
Answer: 50

Question: And the “Plant response rating, Mallow” value [6, 19]?
Answer: 50

Question: What about the “Plant response rating, Mallow” value [6, 13] of the same compound?
Answer: 75

Question: And the “Plant response rating, Mallow” value [6, 14]?
Answer: 95

Question: What about the “Plant response rating, Mallow” value [6, 16] of the same compound?
Answer: 100

Question: And the “Plant response rating, Mallow” value [6, 17]?
Answer: 30

Question: What about the “Plant response rating, Mallow” value [6, 18] of the same compound?
Answer: 10

Question: And the “Plant response rating, Morningglory” value [7, 11]?
Answer: 60

Question: What about the “Plant response rating, Morningglory” value [7, 12] of the same compound?
Answer: 40

Question: What about the “Plant response rating, Morningglory” value [7, 19] of the same compound?
Answer: 10

Question: What about the “Plant response rating, Morningglory” value [7, 13] of the same compound?
Answer: 75

Question: And the “Plant response rating, Morningglory” value [7, 14]?
Answer: 90

Question: And the “Plant response rating, Morningglory” value [7, 17]?
Answer: 20

Question: And the “Plant response rating, Morningglory” value [7, 18]?
Answer: 10

Question: And the “Plant response rating, Bermudagrass” value [8, 11]?
Answer: 80

Question: And the “Plant response rating, Bermudagrass” value [8, 12]?
Answer: 70

Question: What about the “Plant response rating, Bermudagrass” value [8, 19] of the same compound?
Answer: 80

Question: And the “Plant response rating, Bermudagrass” value [8, 13]?
Answer: 100

Question: What about the “Plant response rating, Bermudagrass” value [8, 14] of the same compound?
Answer: 100

Question: What about the “Plant response rating, Bermudagrass” value [8, 16] of the same compound?
Answer: 95

Question: And the “Plant response rating, Bermudagrass” value [8, 17]?
Answer: 50

Question: And the “Plant response rating, Bermudagrass” value [8, 18]?
Answer: 40

Question: What about the “Plant response rating, Ryegrass, Italian” value [9, 11] of the same compound?
Answer: 85

Question: And the “Plant response rating, Ryegrass, Italian” value [9, 12]?
Answer: 85

Question: What about the “Plant response rating, Ryegrass, Italian” value [9, 19] of the same compound?
Answer: 70

Question: And the “Plant response rating, Ryegrass, Italian” value [9, 13]?
Answer: 95

Question: What about the “Plant response rating, Ryegrass, Italian” value [9, 14] of the same compound?
Answer: 100

Question: What about the “Plant response rating, Ryegrass, Italian” value [9, 16] of the same compound?
Answer: 100

Question: And the “Plant response rating, Ryegrass, Italian” value [9, 17]?
Answer: 80

Question: And the “Plant response rating, Ryegrass, Italian” value [9, 18]?
Answer: 60

Question: And the “Plant response rating, Black Mustard” value [10, 11]?
Answer: 100

Question: And the “Plant response rating, Black Mustard” value [10, 12]?
Answer: 100

Question: And the “Plant response rating, Black Mustard” value [10, 19]?
Answer: 100

Question: What about the “Plant response rating, Black Mustard” value [10, 13] of the same compound?
Answer: 100

Question: What about the “Plant response rating, Black Mustard” value [10, 14] of the same compound?
Answer: 100

Question: What about the “Plant response rating, Black Mustard” value [10, 16] of the same compound?
Answer: 95

Question: What about the “Plant response rating, Black Mustard” value [10, 17] of the same compound?
Answer: 100

Question: And the “Plant response rating, Black Mustard” value [10, 18]?
Answer: 100
